Reference: US20240067603A1, “CUBANYL BIGUANIDE COMPOUNDS” (REGENTS OF THE UNIVERSITY OF MINNESOTA, priority 2020, published 2024)

Experiments:
[1] = system: MCF-7 cells; test: MTT cell proliferation assay, MCF-7; type: cell-based, human; details: Homo sapiens, MCF7; MTT, 24 hours treatment, curve fitting; read-out: IC50, proliferation of MCF-7 cells
Experimental: FIG. 8. Effects of HCB on the proliferation of MCF-7 cells. MCF-7 cells were seeded in 96 well plates and treated with drugs at varied concentration for 24 hours. MTT assay was performed to determine remaining viable cells in each well. Results are represented as mean±S.D. (n=7). IC50 was determined by curve fitting.
3-(4,5-Dimethylthiazol-2-yl)-2,5-diphenyltetrazolium Bromide (MTT) Cell Proliferation Assay. To cells grown in 96-well-tissue culture plate, 20 μl/well of MTT solution (5 mg/ml in PBS) was added. After 1-2 hours incubation at 37° C., the plate was centrifuged. Supernatant was discarded and 100 μl DMSO was added to dissolve water insoluble formazan, and the absorbance was read at 540 nm with a plate reader.

[2] = in vitro; details: African green monkey, Vero E6 cells
[3] = Cytotoxicity assay in 293T/ACE2 cells; details: human, HEK293T/17 cells expressing human ACE2
[4] = system: 293T human embryonic kidney cells over-expressing the ACE2 receptor; test: Cytotoxicity assay in 293T/ACE2 cells; details: 293T/ACE2 cytotoxicity
[5] = system: SARS-CoV-2; test: microbe, parasite or virus in culture; type: cell-based
[6] = system: SARS-CoV-2; test: SARS-CoV-2 antiviral assay in Vero cells; type: cell-based; details: Severe acute respiratory syndrome coronavirus 2, Vero
[7] = system: Vero cells; test: Cytotoxicity assay in Vero cells

**Q.** For `N=C(NCC12C3C4C5C3C1C5C42)NC(=N)NCC12C3C4C5C3C1C5C42` (centres unmarked) [DCB, Dicubanomethyl Biguanide], which IC50 [1] is on record?
**A.** 22.1 ± 1.7 µM

**Q.** Which IC50 [1] does the source give for `CC(F)(F)CCCCNC(=N)NC(=N)NCC12C3C4C5C3C1C5C42` (centres unmarked) [HCB-F2, N1-5′,5′-difluorohexyl-N5-(cuban-1-yl)methyl-biguanide] here?
**A.** 13.5 µM

**Q.** With `N=C(NCCCCCC(F)(F)F)NC(=N)NCC12C3C4C5C3C1C5C42` (centres unmarked) [HCB-F3, N1-6′,6′,6′-trifluorohexyl-N5-(cuban-1′-yl)methyl-biguanide] as the compound, how does the IC50 [1] read?
**A.** 13.7 µM

**Q.** For `CCC(CC)COC(=O)[C@H](C)N[P@](=O)(OC[C@H]1O[C@@](C#N)(c2ccc3c(N)ncnn23)[C@H](O)[C@@H]1O)Oc1ccccc1` [remdesivir], which CC50 at 48 h [2] is on record?
**A.** > 20 µM

**Q.** And the CC50 [3]?
**A.** > 0.1 µM

**Q.** What about the CC10 [4] of the same compound?
**A.** > 0.1 µM

**Q.** What about the IC50 ([5]; Severe acute respiratory syndrome coronavirus 2, 293T/ACE2, read-out: antiviral IC50) of the same compound?
**A.** 0.02 µM

**Q.** What about the IC90 ([5]; Severe acute respiratory syndrome coronavirus 2, 293T/ACE2, read-out: antiviral IC90) of the same compound?
**A.** 0.022 µM

**Q.** What about the IC50 ([6]; read-out: antiviral IC50) of the same compound?
**A.** 1.04 µM

**Q.** What about the IC90 ([6]; read-out: antiviral IC90) of the same compound?
**A.** 2.25 µM

**Q.** And the CC10 [7]?
**A.** > 0.286 µM
